Results published in paper PMC11310889, “Ribosomal translation of fluorinated non-canonical amino acids for de novo biologically active fluorinated macrocyclic peptides” (Chemical Science, 2024).

Tests used:
Assay type in all cases: cell-based, Escherichia coli
E. coli W3110 [1] = experiment: Scanning electron microscopy of cell morphology; conditions: E. coli W3110 logarithmic-phase, 4 h treatment at 2 μM and 5 μM (Fig. 5B, S11)
Description: Thaw the previously preserved E. coli W3110 cells from the -80 °C freezer. […]
Scanning electron microscopy
Thaw the previously preserved E. coli W3110 cells from the -80°C freezer. Scrape a small amount and inoculate it into 1 mL of LB liquid medium. Incubate overnight in a 37°C shaker. The next day, inoculate the strain into fresh LB liquid medium at a 1:100 ratio and incubate at 37°C until the OD600 reaches approximately 0.47 to 0.53. Take 500 μL of E. coli W3110 cells, centrifuge for 10 min at 4000 rpm, and discard the supernatant. Resuspend the cells in 500 μL of PBS, then centrifuge again at 4000 rpm for 10 min and discard the supernatant. Dissolve various macrocyclic peptides in DMSO and dilute to the required concentration. Resuspend the untreated group in 500 μL of PBS.
For the peptide treatment group, resuspend in 495 μL of ddH2O, add 5 μL of 0.2 mM or 0.5 mM peptides, mix well, and let react for 4 h.
After the treament, spot 4 μL of the sample on plates. Perform the first ten-fold dilution and mix, then continue with the second to fifth ten-fold dilutions. Incubate the plates inverted overnight in a 37°C incubator. Scan and count the colonies. For the remaining 492 μL, centrifuge at 6100g for 10 min, discard the supernatant, add 500 μL of ddH2O, and let it stand for 15 min. Centrifuge again at 6100g for 10 min, discard the supernatant, and add 500 μL of ddH2O containing 2.5% glutaraldehyde. Resuspend and fix the cells overnight at 4°C. Centrifuge at 6100g for 10 min, remove the supernatant, and wash twice with ddH2O, letting it stand for 15 min each time, followed by centrifugation at 6100g for 10 min. Discard the supernatant. Dehydrate the sample with ethanol at concentration gradients of 30%, 60%, and 90%, without resuspension, centrifuging at 6100g for […]
10 min and discarding the supernatant after each step. Finally, use 100% ethanol, rest for 15 min, centrifuge at 6100g for 10 min, discard the supernatant, and repeat with 100% ethanol, leaving about 10 μL. Then the critical point was dried and sprayed with gold, and the images were observed by […]
Prediction of binding sites between peptides and the BAM complex
Firstly, the fpocket algorithm was used, a rapid method for pocket prediction based on the three-dimensional structure of BAM complex (PDB ID: 5AYW). This method establishes a grid surrounding the protein, positioning alpha spheres on grid points devoid of spatial conflicts with protein atoms, subsequently utilizing a clustering algorithm to ascertain whether these regions constitute potential binding pockets. Alpha spheres were designated with radii ranging from 3.4Å to 6.2Å, with a prerequisite of at least 15 alpha spheres for a region to be considered a pocket. […]
PepNN evaluated each amino acid for its potentiality as a peptide binding site. […]

E. coli W3110 [2] = experiment: Protein leakage assay; conditions: E. coli W3110, 5 μM peptide, 15 min, pellet analysed by SDS-PAGE, compared to R9-treated sample (Fig. S10)
Description: Thaw the previously preserved E. coli W3110 cells from the -80 °C freezer. Scrape a small amount and inoculate it into 1 mL of LB liquid medium. Incubate overnight in a 37°C shaker. Next day, transfer the culture to fresh LB liquid medium at a 1:100 inoculation ratio and incubate at 37 °C until the OD600 reaches approximately 0.47 to 0.53. Collect 300 μL of the E. coli W3110 cells and centrifuge for 2 min at 13,000 rpm, discarding the supernatant afterward. Resuspend the untreated group in 300 μL of PBS, and the peptide treatment group in 297 μL of ddH2O. Add 3 μL of 0.5 mM different peptides to the treatment group, mix well, and allow to react for 15 min. After the treatment, resuspend all samples in 15 μL of 6×SDS loading buffer and 15 μL of 10% SDS. All samples were heated at 99.9°C for 15 min, followed by 10% SDS-PAGE analysis and staining with Coomassie brilliant blue R250. […]
(§1) Incubate overnight in a 37°C shaker. […]

E. coli W3110 [3] = experiment: Propidium iodide (PI) assay of membrane permeability; conditions: E. coli W3110 logarithmic-phase, 15 min treatment with 5 μM peptide, PI 25 μg/mL 15 min (Fig. 5A)
Description: Propidium Iodide (PI) assay
Thaw the previously preserved E. coli W3110 cells from the -80 °C freezer. Scrape a small amount and inoculate it into 1 mL of LB liquid medium. Culture overnight in a 37°C shaker. Next day, inoculate the strain into fresh LB liquid medium at a 1:100 ratio and incubate at 37 °C until the OD600 reaches approximately 0.47 to 0.53. Take 100 μL of the E. coli W3110 cells and centrifuge for 2 min at 13,000 rpm. Discard the supernatant. For the untreated group, resuspend the cells in 100 μL of PBS. For the peptide treatment group, resuspend the cells in 99 μL of ddH2O and add 1 […]
μL of 0.5 mM of the different peptides. Mix thoroughly and let react for 15 min. After the treatment, take 80 μL of each sample and incubate with PI at a final concentration of 25 μg/mL for 15 min.
After incubation, wash the samples with the same amount of PBS, centrifuge, and resuspend at a 10-fold concentration. Observe the images using a Nikon Eclipse Ci-L Plus microscope. […]
as §1
Centrifuge again at
6100g for 10 min, discard the supernatant, and add 500 μL of ddH2O containing 2.5% glutaraldehyde. Resuspend and fix the cells overnight at 4°C. Centrifuge at 6100g for 10 min, remove the supernatant, and wash twice with ddH2O, letting it stand for 15 min each time, followed by centrifugation at 6100g for 10 min. Discard the supernatant. Dehydrate the sample with ethanol at concentration gradients of 30%, 60%, and 90%, without resuspension, centrifuging at 6100g for […]

| Substance | morphological changes by scanning electron microscopy (E. coli W3110 [1]) | cellular protein leakage (E. coli W3110 [2]) | PI red fluorescence (cell membrane permeability) (E. coli W3110 [3]) |
| --- | --- | --- | --- |
| Ac-(4-F-DPhe)IWHKSLT(4-F-DPhe)NYLHTCGS(Acp)RRRRRRRRR-NH2 (sidechain bridge or staple) [BAM-f2-R9, BAM-f2 conjugated with cell-penetrating peptide R9] | severe damage in the cell shape and even lysis | partial cellular protein leakage | notable red fluorescence intensity |
| Ac-(4-F-DPhe)KHFIY(4-F-β-Phe)YRSPICGS(Acp)RRRRRRRRR-NH2 (sidechain bridge or staple) [BAM-β3-R9, BAM-β3 conjugated with cell-penetrating peptide R9] | severe damage in the cell shape and even lysis | partial cellular protein leakage | notable red fluorescence intensity |
